Data taken from ChEMBL document CHEMBL1201862, “PubChem BioAssay data set” (2004).
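Interpolation was linear, between the two tested concentrations surrounding the appropriate level; five concentrations were tested over 48 hours in 96-well plates. GI50: concentration for 50% inhibition of growth.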 Calls of active or inactive are those of the source. No stated cut-off is given here; in the data, active = GI50 up to about 1.1 µM and inactive = higher.

What was measured:
Assay in all cases: DTP human tumour cell line panel, 48 h
A498 = system: A498
A549 = system: A549
ACHN = system: ACHN
CAKI-1 = system: CAKI-1
CCRF-CEM = system: CCRF-CEM
COLO 205 = system: COLO 205
DLD-1 = system: DLD-1
DMS-114 = system: DMS-114
EKVX = system: EKVX
HCC 2998 = system: HCC 2998
HCT-116 = system: HCT-116
HL-60 = system: HL-60
HOP-18 = system: HOP-18
HOP-62 = system: HOP-62
HT-29 = system: HT-29
IGROV-1 = system: IGROV-1
K562 = system: K562
KM-20L2 = system: KM-20L2
KM12 = system: KM12
LOX IMVI = system: LOX IMVI
LXFL 529 = system: LXFL 529
M14 = system: M14
M19-MEL = system: M19-MEL
MOLT-4 = system: MOLT-4
Malme-3M = system: Malme-3M
NCI-H226 = system: NCI-H226
NCI-H23 = system: NCI-H23
NCI-H460 = system: NCI-H460
NCI-H522 = system: NCI-H522
OVCAR-3 = system: OVCAR-3
OVCAR-4 = system: OVCAR-4
OVCAR-5 = system: OVCAR-5
OVCAR-8 = system: OVCAR-8
RPMI-8226 = system: RPMI-8226
RXF 631 = system: RXF 631
SF-268 = system: SF-268
SF-295 = system: SF-295
SF-539 = system: SF-539
SK-MEL-28 = system: SK-MEL-28
SK-MEL-2 = system: SK-MEL-2
SK-MEL-5 = system: SK-MEL-5
SK-OV-3 = system: SK-OV-3
SN12C = system: SN12C
SNB-19 = system: SNB-19
SNB-75 = system: SNB-75
SNB-78 = system: SNB-78
SR = system: SR
SW-620 = system: SW-620
U-251 = system: U-251
UACC-257 = system: UACC-257
UACC-62 = system: UACC-62
UO-31 = system: UO-31

Measured: GI50

COc1ccc(N2C(=O)/C(=C(\C)c3cc4ccccc4oc3=O)N=C2c2cc([N+](=O)[O-])ccc2Cl)cc1
inactive: A498 24 µM | A549 34.9 µM | ACHN 32.1 µM | CAKI-1 29.6 µM | CCRF-CEM 32.5 µM | COLO 205 43.9 µM | DLD-1 54.7 µM | DMS-114 24.2 µM | EKVX > 100 µM | HCC 2998 43.5 µM | HCT-116 29.9 µM | HL-60 22.9 µM | HOP-18 85.1 µM | HOP-62 > 100 µM | HT-29 35.7 µM | IGROV-1 43.3 µM | K562 10.8 µM | KM-20L2 29.7 µM | KM12 22.3 µM | LOX IMVI 34.5 µM | LXFL 529 29.9 µM | M14 23.6 µM | M19-MEL 42.1 µM | MOLT-4 29.7 µM | Malme-3M 45.2 µM | NCI-H226 > 100 µM | NCI-H23 11.2 µM | NCI-H460 41.9 µM | NCI-H522 11.5 µM | OVCAR-3 73.8 µM | OVCAR-4 38.4 µM | OVCAR-5 > 100 µM | OVCAR-8 > 100 µM | RPMI-8226 26.5 µM | RXF 631 36.6 µM | SF-268 28.7 µM | SF-295 17.1 µM | SF-539 29.9 µM | SK-MEL-28 66.4 µM | SK-MEL-2 61 µM | SK-MEL-5 30.6 µM | SK-OV-3 57.7 µM | SN12C 35 µM | SNB-19 32.7 µM | SNB-75 33.3 µM | SNB-78 24.4 µM | SR 34.4 µM | SW-620 33.9 µM | U-251 48.1 µM | UACC-257 44 µM | UACC-62 26.6 µM | UO-31 46.9 µM
